Measurements from patent US20180171304A1, “CONTINUOUSLY BIOPRINTED MULTILAYER TISSUE STRUCTURE” (ASPECT BIOSYSTEMS LTD., priority 2015, published 2018).

Test system: muscle tube
Conditions: tube cultured for 14 days; contraction gradual over a 40 minute time period; FIG. 2
Description: In one embodiment, described herein are multi-layered tubes of muscle tissue. The tubes are created using a layer-by-layer deposition process by which muscle cells are dispersed within a solidified biocompatible matrix and bioprinted in a continuous fiber. In one embodiment, the fiber is deposited in a ring-like pattern to form a layer. These layers are stacked to form tubes, the height of which may be varied in a controlled way by changing the number of layers. Preferably, the matrix composition is physiologically compatible such that it allows the muscle cells to fully differentiate into a contractile phenotype. At the time of bioprinting, the tube is not contractile. […]
After bioprinting, the muscle structure must be submersed in cell culture media and placed in a cell culture incubator with temperature and carbon dioxide level control. […] In the preferred embodiment contraction and relaxation are measured by visual observation of changes in the diameter of the tube. […] Alternatively, a camera with an appropriate level of magnification could be positioned above the smooth muscle tube such that video footage of the tube from a top down perspective is recorded. […] The change in area, radius, diameter or circumference of the muscle tube may be quantified. […]

## NCCc1c[nH]cn1 [histamine]
  contraction of muscle tube (smaller diameter in contracted state): initiate contraction
